Source: patent US6713265B1 (Synaptic Pharmaceutical Corporation, priority 1999, dated 2004)
Read-outs that look alike come from different tables or passages of the source.

Tests used:
human Y4 receptor = molecular target: T1, human Y4 receptor (Homo sapiens, UniProt P50391); assay: ^125I-PYY binding to membranes, cloned human Y4 receptor
T1 construct: expressed in transfected cells; host or cells: COS-7 (transient)

rat Y2 receptor [1] = molecular target: T2, rat Y2 receptor (Rattus norvegicus, UniProt Q9ERC0); assay: Antagonism of NPY- or PP-induced activation of rat Y2 receptors; assay type: cell-based; details: concentrations up to 1 μM
T2 sequence (Q9ERC0 1-381): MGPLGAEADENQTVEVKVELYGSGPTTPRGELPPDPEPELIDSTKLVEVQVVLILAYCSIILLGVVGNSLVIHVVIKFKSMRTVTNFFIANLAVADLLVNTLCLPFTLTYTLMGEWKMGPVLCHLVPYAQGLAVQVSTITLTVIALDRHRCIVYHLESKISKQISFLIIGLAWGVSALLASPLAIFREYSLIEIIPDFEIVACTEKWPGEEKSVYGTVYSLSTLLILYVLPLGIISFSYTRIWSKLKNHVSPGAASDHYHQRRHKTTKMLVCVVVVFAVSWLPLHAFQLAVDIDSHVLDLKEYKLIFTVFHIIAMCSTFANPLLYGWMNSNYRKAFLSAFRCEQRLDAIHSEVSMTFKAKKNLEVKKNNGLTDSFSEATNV

rat Y5 receptor [2] = molecular target: T3, rat Y5 receptor (Rattus norvegicus, UniProt Q63634); assay: Radioligand binding to membranes of cells expressing cloned rat Y5 receptor; details: BIBP 3226 at cloned rat Y-type receptors
T3 construct: expressed in transfected cells; host or cells: COS-7 (transient, DEAE-dextran)
T3 sequence (Q63634 whole entry): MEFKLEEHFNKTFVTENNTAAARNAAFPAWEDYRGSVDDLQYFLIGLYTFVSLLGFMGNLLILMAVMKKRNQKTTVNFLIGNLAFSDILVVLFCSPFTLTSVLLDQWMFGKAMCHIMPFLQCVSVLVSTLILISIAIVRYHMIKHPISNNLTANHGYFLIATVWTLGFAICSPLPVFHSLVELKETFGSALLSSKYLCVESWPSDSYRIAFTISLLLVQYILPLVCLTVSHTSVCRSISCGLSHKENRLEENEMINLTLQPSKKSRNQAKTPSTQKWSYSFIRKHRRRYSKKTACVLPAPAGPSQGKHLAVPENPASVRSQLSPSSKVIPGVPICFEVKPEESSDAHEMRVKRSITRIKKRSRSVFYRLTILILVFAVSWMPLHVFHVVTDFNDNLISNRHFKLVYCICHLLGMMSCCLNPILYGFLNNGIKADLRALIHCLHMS

human Y5 receptor [3] = assay: Radioligand binding to membranes of cells expressing cloned human Y5 receptor; details: BIBP 3226 at cloned human Y-type receptors
rat Y4 receptor = molecular target: T4, rat Y4 receptor (Rattus norvegicus, UniProt Q63447); assay: ^125I-PYY binding to membranes, cloned rat Y4 receptor; details: BIBP 3226 at cloned rat Y-type receptors
T4 construct: expressed in transfected cells; host or cells: COS-7 (transient)
T4 sequence (Q63447 whole entry): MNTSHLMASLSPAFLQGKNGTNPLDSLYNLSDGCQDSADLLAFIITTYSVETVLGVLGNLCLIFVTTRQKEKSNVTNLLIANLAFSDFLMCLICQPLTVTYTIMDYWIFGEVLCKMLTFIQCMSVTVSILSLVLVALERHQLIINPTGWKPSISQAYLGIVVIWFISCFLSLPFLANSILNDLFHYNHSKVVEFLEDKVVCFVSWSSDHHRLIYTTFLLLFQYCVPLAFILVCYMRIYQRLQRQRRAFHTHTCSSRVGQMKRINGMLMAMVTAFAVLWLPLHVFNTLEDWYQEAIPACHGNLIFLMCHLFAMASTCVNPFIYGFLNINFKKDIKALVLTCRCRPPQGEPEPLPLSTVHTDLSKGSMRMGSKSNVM

rat Y5 receptor [4] = assay: Radioimmunoassay of cAMP, 293 cells stably expressing rat Y5 receptor; assay type: cell-based; details: concentrations up to 1 μM
human Y2 receptor = molecular target: T5, human Y2 receptor (Homo sapiens, UniProt P49146); assay: ^125I-PYY binding to membranes, cloned human Y2 receptor
T5 construct: expressed in transfected cells; host or cells: COS-7 (transient)
T5 sequence (P49146 1-381): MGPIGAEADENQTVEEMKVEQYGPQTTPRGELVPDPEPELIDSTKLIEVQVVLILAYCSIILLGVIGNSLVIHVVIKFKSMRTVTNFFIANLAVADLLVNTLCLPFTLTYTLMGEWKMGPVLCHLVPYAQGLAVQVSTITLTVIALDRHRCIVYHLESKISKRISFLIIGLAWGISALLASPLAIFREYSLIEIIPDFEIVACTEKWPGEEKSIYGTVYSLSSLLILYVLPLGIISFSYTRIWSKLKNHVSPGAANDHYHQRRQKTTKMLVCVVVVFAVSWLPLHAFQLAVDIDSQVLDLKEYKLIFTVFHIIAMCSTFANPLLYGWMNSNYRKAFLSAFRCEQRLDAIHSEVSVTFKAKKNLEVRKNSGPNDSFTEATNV

canine Y5 receptor = assay: Porcine ^125I-PYY binding to membranes of COS-7 cells transfected with canine Y5 receptor; details: COS-7 transient
rat Y2 receptor [5] = molecular target: T2, rat Y2 receptor; assay: ^125I-PYY binding to membranes, cloned rat Y2 receptor; design: expressed in transfected cells; host or cells: COS-7 (transient); details: BIBP 3226 at cloned rat Y-type receptors
food intake = assay: Food intake in food-deprived rats; assay type: in vivo, rat; details: Rattus norvegicus, ip, 2 h; 30 mg/kg i.p., after 24h food deprivation, two hours; read-out: Two-hour food intake of food-deprived rats, percentage of intake compared to control rats, Mean
Method: After receipt, the animals are individually housed for the duration of the study and allowed free access to normal food together with tap water. The animals are maintained in a room with a 12 h light/dark cycle (8:00 a.m. to 8:00 p.m. light) at 24° C. and monitored humidity. After placement into individual cages the rats undergo a 4 day equilibration period, during which they are habituated to their new environment and to eating a powdered or pellet diet NAFAG, Gossau, Switzerland).
At the end of the equilibration period, food is removed from the animals for 24 hours starting at 8:00 a.m. At the end of the fasting period compound or vehicle may be administered to the animals orally or by injection intraperitoneally or intravenously. After 10-60 min. food is returned to the animals and their food intake is monitored at various time periods during the following 24 hour period. The food intake of animals treated with test compound may be calculated as a percentage of the food intake of control animals (i.e., animals treated with vehicle). Alternatively, food intake for each group of animals subjected to a particular experimental condition may be expressed as the mean±S.E.M.
Measurements were performed two hours after administration of the test compound.

5HT1F = molecular target: T6, 5HT1F (Homo sapiens, UniProt P30939); assay: Binding at cloned human 5HT1F receptor; details: read-out: pKi 5HT1F (converted)
T6 construct: expressed in transfected cells; host or cells: LM(tk-), line L-5-HT1F (ATCC 10957)
T6 sequence (P30939 whole entry): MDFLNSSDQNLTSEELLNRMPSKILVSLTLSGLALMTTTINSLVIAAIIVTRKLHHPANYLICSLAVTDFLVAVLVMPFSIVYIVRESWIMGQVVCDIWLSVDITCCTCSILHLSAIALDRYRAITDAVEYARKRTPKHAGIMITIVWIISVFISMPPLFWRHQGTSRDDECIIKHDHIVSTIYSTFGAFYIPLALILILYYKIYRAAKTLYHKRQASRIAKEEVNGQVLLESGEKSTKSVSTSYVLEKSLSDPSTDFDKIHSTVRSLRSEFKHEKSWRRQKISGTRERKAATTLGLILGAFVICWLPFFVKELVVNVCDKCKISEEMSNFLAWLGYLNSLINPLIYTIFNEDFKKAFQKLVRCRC
Source text: (§1) The cell line for the 5HT1Dα receptor, designated as Ltk-8-30-84, was deposited on Apr. 17, 1990, and accorded ATCC Accession No. CRL 10421. The cell for the 5HT1Dβ receptor, designated as Ltk-11, was deposited on Apr. 17, 1990, and accorded ATCC Accession No. CRL 10422. The cell line for the 5HT1E receptor, designated 5 HT1E-7, was deposited on Nov. 6, 1991, and accorded ATCC Accession No. CRL 10913. The cell line for the ^5HT1F receptor, designated L-5-HT1F, was deposited on Dec. 27, 1991, and accorded ATCC Accession No. ATCC 10957. Membrane preparations comprising these receptors were prepared as described below, and suspended in 50 mM Tris-HCl buffer (pH 7.4 at 37° C.) containing 10 mM MgCl2, 0.2 mM EDTA, 10 μM pargyline, and 0.1% ascorbate. The binding of compounds was determined in competition binding assays by incubation for 30 minutes at 37° C. in the presence of 5 nM [^3H]serotonin.

5HT1E = 5HT1E (Homo sapiens, UniProt P28566); assay: Binding at cloned human 5HT1E receptor; details: read-out: pKi 5HT1E (converted)
5HT1E, sequence (P28566 whole entry): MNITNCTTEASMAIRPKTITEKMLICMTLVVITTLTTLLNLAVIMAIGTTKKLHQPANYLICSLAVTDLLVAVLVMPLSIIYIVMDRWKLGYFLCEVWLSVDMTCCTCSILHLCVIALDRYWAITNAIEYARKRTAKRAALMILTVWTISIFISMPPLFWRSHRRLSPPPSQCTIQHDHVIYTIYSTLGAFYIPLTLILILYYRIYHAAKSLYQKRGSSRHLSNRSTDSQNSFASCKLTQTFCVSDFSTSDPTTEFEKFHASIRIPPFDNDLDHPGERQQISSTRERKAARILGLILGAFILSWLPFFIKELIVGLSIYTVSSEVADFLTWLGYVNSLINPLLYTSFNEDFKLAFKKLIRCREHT
Source text: as §1

human Y5 receptor [6] = molecular target: T7, human Y5 receptor (Homo sapiens, UniProt Q15761); assay: Radioligand binding to membranes of cells expressing cloned human Y5 receptor; design: Ki Values, Human Y5; apparent Kd; pKd; Ki Values, Human Y5 (LM(tk-; The isolated clone (CG-19) turned out to contain a full length cDNA; The longest open reading frame encodes a 455 amino acid protein; details: Table 14; stably transfected LM(tk-) cells
T7 sequence (Q15761 1-445): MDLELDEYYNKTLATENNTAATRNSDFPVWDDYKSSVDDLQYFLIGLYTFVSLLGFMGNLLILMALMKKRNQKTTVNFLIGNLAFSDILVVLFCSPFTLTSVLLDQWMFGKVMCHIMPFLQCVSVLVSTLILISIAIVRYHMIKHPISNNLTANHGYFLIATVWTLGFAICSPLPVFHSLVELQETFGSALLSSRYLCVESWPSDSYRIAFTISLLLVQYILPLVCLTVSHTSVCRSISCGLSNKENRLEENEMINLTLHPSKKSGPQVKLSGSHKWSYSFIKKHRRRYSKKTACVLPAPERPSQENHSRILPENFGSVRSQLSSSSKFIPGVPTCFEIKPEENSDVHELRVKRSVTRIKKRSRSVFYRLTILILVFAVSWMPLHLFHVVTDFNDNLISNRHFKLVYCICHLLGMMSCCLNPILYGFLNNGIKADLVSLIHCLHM

human Y5 receptor [7] = molecular target: T7, human Y5 receptor; assay: Radioimmunoassay of cAMP, cells stably expressing human Y5 receptor; assay type: cell-based; design: Ki Values, Human Y5; apparent Kd; pKd; Ki Values, Human Y5 (LM(tk-; The isolated clone (CG-19) turned out to contain a full length cDNA; The longest open reading frame encodes a 455 amino acid protein; details: block of NPY-induced inhibition of cAMP accumulation
Method: LM(tk-) cells stably transfected with the human Y5 receptor were routinely converted from an adherent monolayer to a viable suspension. […] The cell suspension was maintained in a shaking incubator at 37° C., 5% CO2 for 24 hours. […] Alternatively, cells may be returned to adherent cell culture in complete DMEM by distribution into 96-well microtiter plates coated with poly-D-lysine (0.01 mg/ml) followed by incubation at 37° C., 5% CO2 for 24 hours.
The maximum inhibition of cAMP accumulation (Emax) and the concentration producing a half-maximal effect (EC50) were determined by nonlinear regression analysis according to a 4 parameter logistic equation.
The ability of the compounds to antagonize the Y-type receptors is reported as the Kb. […] The results shown are representative of at least three independent experiments.

human Y1 receptor = molecular target: T8, human Y1 receptor (Homo sapiens, UniProt P25929); assay: ^125I-PYY binding to membranes, cloned human Y1 receptor
T8 construct: expressed in transfected cells; host or cells: COS-7 (transient)
T8 sequence (P25929 1-384): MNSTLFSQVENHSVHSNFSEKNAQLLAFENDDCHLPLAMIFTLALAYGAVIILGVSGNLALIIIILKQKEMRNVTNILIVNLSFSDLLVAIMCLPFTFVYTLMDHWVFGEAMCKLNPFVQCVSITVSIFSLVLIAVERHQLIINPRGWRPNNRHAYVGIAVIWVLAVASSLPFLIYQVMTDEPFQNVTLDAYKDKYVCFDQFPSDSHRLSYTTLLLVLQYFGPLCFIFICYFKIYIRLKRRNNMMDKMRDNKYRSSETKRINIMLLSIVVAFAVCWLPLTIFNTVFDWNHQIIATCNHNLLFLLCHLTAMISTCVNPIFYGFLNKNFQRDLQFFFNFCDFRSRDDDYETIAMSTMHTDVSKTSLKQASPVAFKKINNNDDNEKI

T1 sequence (P50391 whole entry): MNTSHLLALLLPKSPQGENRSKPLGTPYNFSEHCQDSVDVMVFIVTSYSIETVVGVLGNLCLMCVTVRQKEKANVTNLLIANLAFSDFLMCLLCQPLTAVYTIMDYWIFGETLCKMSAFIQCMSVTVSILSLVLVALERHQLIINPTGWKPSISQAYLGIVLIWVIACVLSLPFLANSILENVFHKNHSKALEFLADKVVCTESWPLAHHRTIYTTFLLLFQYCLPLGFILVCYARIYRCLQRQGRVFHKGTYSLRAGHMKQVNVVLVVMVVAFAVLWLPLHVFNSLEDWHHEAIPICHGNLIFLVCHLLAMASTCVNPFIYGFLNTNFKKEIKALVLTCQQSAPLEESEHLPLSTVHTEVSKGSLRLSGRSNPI

NC(N)=NCCC[C@@H](NC(=O)C(c1ccccc1)c1ccccc1)C(=O)NCc1ccc(O)cc1 [BIBP 3226]
Ki (human Y4 receptor; BIBP 3226 at cloned human Y-type receptors, read-out: Ki, human Y4 receptor): 8 µM | antagonism of NPY- or PP-induced activation of rat Y2 receptors (rat Y2 receptor [1]): no evidence for antagonism | Ki (rat Y5 receptor [2]): 25 µM | Ki (human Y5 receptor [3]): 49 µM | Ki (rat Y4 receptor): 0.42 µM | antagonism of NPY- or PP-induced activation of rat Y5 receptors (rat Y5 receptor [4]): no evidence for antagonism | Ki (human Y2 receptor; BIBP 3226 at cloned human Y-type receptors, read-out: Ki, human Y2 receptor): 6.9 µM | Ki (canine Y5 receptor): 17 µM | Ki (rat Y2 receptor [5]): 66 µM

O=S(=O)(NC[C@H]1CC[C@H](CNC(CO)Cc2ccc(Cl)cc2)CC1)c1cccc2ccccc12 (stereo partly drawn) [Compound 25, Naphthalene-1-sulfonic Acid trans-(4-{[2-(4-Chlorophenyl)-1-hydroxymethyl-ethylamino]-methyl}-cyclohexylmethyl)-amide]
Ki (human Y4 receptor; read-out: Binding Affinity Ki vs. ^125I-PYY, Human Receptor Y4, Table 14, stably transfected LM(tk-) cells): 13.1 µM | response vs control in vivo at 30 mg/kg (food intake): 32% | Ki (5HT1F): ≥ 5.01 µM | Ki (human Y2 receptor; read-out: Binding Affinity Ki vs. ^125I-PYY, Human Receptor Y2, Table 14, stably transfected 293 cells (compound 1 also COS-7)): 0.851 µM | Ki (5HT1E): ≥ 5.01 µM

NCC(Cc1ccccc1)Nc1cccc2ccccc12 (stereo not shown) [Compound 28]
Ki (human Y4 receptor; Table 14, stably transfected LM(tk-) cells): > 100 µM | Ki (human Y5 receptor [6]): 19 µM | Y5 receptor antagonist activity (human Y5 receptor [7]): Y5 receptor antagonist | Ki (human Y2 receptor): > 75 µM | Ki (human Y1 receptor): > 100 µM
